From patent US20030175769A1, “Reagents for improved PCR” (priority 2001, published 2003)

Assays:
[1] = system: plasmid containing the complete DPD cDNA; assay: Real time PCR signal intensity, FRET-HybProbe formate; format: biochemical; details: 0,1 g/μl compound
Excerpt: For this experiment, the primer mix according to example 3 was used. Various amounts of plasmid containing the complete DPD cDNA ranging from 0,4 to 40 fg were amplified with the primer mix by means of PCR under the conditions of example 3 in the presence or absence of […] compound III according to example 2.
For Real Time PCR detection, FRET-hybridization probes from the LightCycler Dihydropyrimidin-Dehydrogenase (DPD) mRNA quantification kit (Roche Molecular Biochemicals, cat. No. 3136957) were used in concentrations according to the manufacturer's instructions.

[2] = system: PCR amplification mixture; assay: Hot start effect when added to a PCR amplification mixture; format: biochemical

O=C(O)C1=C/C(=C(/c2ccc(O)c(C(=O)O)c2)c2cc(Cc3ccc(O)c(C(=O)O)c3)c(O)c(C(=O)O)c2)C=CC1=O [Compound I]
specific amplification signal (FIG. 3a) ([1]; 0,4 fg template DNA): can only be obtained in presence of the additive | specific signaling, cycle number of detection (FIG. 3b,c) ([1]; higher template concentrations (4 fg, 40 fg)): detected at earlier cycle numbers | hot start effect [2]: extensive hot start effect
